Each structure is given as a SMILES string.

In the assay the target is Gag-Pol polyprotein (Human immunodeficiency virus type 1 group M subtype B (isolate HXB2)(HIV-1), UniProt P04585). Briefly: Inhibition Assay: The inhibition of WT HIV-1 protease was studied using the reaction of the protease (expressed in Eschericia coli) with a peptide substrate [Val-Ser-Gln-Asn-(betanaphthyl)Ala-Pro-Ile-Val (SEQ ID NO:1)]. Compounds were tested using Procedure A. In Procedure A, the test compound was first preincubated with the enzyme in assay buffer (50 mM sodium acetate, pH 5.5, 100 mM NaCl, and 0.1% BSA) for 30 minutes at room temperature. Substrate was then added to 400 micromolar in a total volume of 80 microliters containing 10 picomolar HIV-1 protease and the reaction was incubated for 1 hour at 30° C. The reaction was quenched with the addition of 120 microliters of 10% phosphoric acid. The product formation was determined after separation of product and substrate on a Zorbax Eclipse XDB-C18 column (Agilent Technologies, Santa Clara, Calif.) connected to an Agilent 1100 high performance liquid chromatography system with fluorescence detection (excitation 270 nanometer and emission 330 nanometer).
In turn, `COC(=O)N[C@H](C(=O)N[C@H](c1ccc([C@@H](CO)N(C(C)C)S(=O)(=O)c2ccc(N)cc2)s1)C(F)(F)F)[C@@H](c1ccccc1)c1c[nH]c2ncccc12` yielded an IC50 of 3.96 nM.

Consider `COC(=O)N[C@H](C(=O)N[C@H](c1ccc([C@@H](CO)N(C(C)C)S(=O)(=O)c2ccc(N)c(Cl)c2)s1)C(F)(F)F)C(c1ccccc1)c1ccccc1`, for which half-maximal inhibition (IC50) required 92.5 nM.

On to `COC(=O)N[C@H](C(=O)N[C@H](c1ccc(C(CO)N(CCC(C)(C)C)S(=O)(=O)c2ccc(OC)nc2)s1)C(F)(F)F)C(c1ccccc1)c1ccccc1` (stereo partly specified), for which the IC50 worked out at 27.5 nM.

On to `COC(=O)N[C@H](C(=O)NCc1ccc([C@@H](CO)N(CC2CC(F)(F)C2)S(=O)(=O)c2ccc(C(O)C(F)(F)F)cc2)s1)C(c1ccccc1)c1ccccc1` (stereo partly specified), for which the IC50 was determined as 26.9 nM.

On to `COC(=O)N[C@H](C(=O)N[C@H](c1ccc([C@@H](CO)N(C(C)C)S(=O)(=O)c2cc(N)cs2)s1)C(F)(F)F)C(c1ccccc1)c1ccccc1`, for which the IC50 was determined as 21.7 nM.

Consider `COC(=O)N[C@H](C(=O)N[C@H](c1ccc([C@@H](CO)N(C(C)C)S(=O)(=O)c2ccc(Cl)s2)s1)C(F)(F)F)C(c1ccccc1)c1ccccc1`, for which the half-inhibitory concentration (IC50) was determined as 184 nM.

`COC(=O)N[C@H](C(=O)N[C@H](c1ccc([C@@H](CO)N(CCC(C)(C)C)S(=O)(=O)c2ccc(=O)[nH]c2)s1)C(F)(F)F)C(c1ccccc1)c1ccccc1`: the IC50 came to 9.42 nM.

As to `COC(=O)N[C@H](C(=O)NCc1ccc([C@@H](CO)N(CC2CC(F)(F)C2)S(=O)(=O)c2ccc(C(C)=O)cc2)s1)C(c1ccccc1)c1ccccc1`, half-maximal inhibition (IC50) was put at 11.9 nM.

In the case of `COC(=O)N[C@H](C(=O)N[C@H](c1ccc([C@@H](CO)N(CCC(C)(C)C)S(=O)(=O)C2=CC3NC=C(Cl)C3C=C2)s1)C(F)(F)F)C(c1ccccc1)c1ccccc1` (stereo partly specified), 43.8 nM corresponded to half-maximal inhibition (IC50).

`COC(=O)N[C@H](C(=O)NCc1ccc([C@@H](CO)N(CC2CC(F)(F)C2)S(=O)(=O)c2ccc(C(C)O)cc2)s1)C(c1ccccc1)c1ccccc1` (stereo partly specified) yielded an IC50 of 8.97 nM.

`COC(=O)N[C@H](C(=O)N[C@H](c1ccc([C@@H](CO)N(CCC(C)(C)C)S(=O)(=O)c2cn3ncnc3cn2)s1)C(F)(F)F)C(c1ccccc1)c1ccccc1` yielded an IC50 of 3.59 nM.

For orientation: IC50 means the concentration that inhibits the measured activity by half. Read a high IC50 as weaker potency.

Source of the values: ChEMBL document CHEMBL3886153, “HIV protease inhibitors” (2015).
